Reference: ChEMBL document CHEMBL4387773, “Identification of potent, selective and orally bioavailable phenyl ((R)-3-phenylpyrrolidin-3-yl)sulfone analogues as RORγt inverse agonists” (Bioorg Med Chem Lett, 2019)

Key:
[1] = target: T1, Nuclear receptor ROR-gamma (Homo sapiens, UniProt P51449); test: Inverse agonist activity at human Gal4-fused RORgammat LBD (267 to 516 residues) expressed in human Jurkat cells measured after 18 hrs by steady-glo luciferase reporter gene assay; format: cell-based
T1 sequence (P51449 whole entry): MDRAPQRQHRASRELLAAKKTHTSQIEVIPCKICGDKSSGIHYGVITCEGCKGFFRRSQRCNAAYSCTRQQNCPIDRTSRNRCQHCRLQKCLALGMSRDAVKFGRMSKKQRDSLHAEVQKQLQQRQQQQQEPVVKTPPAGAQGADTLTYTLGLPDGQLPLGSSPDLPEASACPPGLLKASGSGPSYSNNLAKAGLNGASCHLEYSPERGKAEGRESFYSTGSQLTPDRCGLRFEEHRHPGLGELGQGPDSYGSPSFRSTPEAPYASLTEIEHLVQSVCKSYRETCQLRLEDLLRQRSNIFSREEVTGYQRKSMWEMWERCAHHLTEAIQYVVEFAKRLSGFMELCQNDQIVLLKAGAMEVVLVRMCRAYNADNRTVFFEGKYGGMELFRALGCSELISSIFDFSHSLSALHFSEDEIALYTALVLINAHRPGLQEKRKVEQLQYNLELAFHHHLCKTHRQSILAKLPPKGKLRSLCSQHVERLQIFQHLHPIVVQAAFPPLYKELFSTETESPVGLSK

[2] = target: T2, Nuclear receptor ROR-beta (Homo sapiens, UniProt Q92753); test: Inverse agonist activity at human Gal4-fused RORbeta LBD (200 to 559 residues) expressed in human Jurkat cells measured after 18 hrs by steady-glo luciferase reporter gene assay; format: cell-based
T2 sequence (Q92753 whole entry): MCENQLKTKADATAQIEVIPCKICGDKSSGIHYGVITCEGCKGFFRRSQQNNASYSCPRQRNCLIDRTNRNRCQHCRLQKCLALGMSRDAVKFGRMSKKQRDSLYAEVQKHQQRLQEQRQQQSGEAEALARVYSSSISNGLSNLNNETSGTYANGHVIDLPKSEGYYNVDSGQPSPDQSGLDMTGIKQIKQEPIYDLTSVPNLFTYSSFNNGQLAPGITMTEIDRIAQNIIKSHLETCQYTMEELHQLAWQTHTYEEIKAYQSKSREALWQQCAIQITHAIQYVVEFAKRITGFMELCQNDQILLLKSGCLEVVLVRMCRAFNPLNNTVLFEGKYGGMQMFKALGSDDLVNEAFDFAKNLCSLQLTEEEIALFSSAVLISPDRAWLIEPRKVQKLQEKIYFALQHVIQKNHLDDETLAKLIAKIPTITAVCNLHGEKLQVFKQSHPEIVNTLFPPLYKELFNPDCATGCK

[3] = target: T3, Nuclear receptor ROR-alpha (Homo sapiens, UniProt P35398); test: Inverse agonist activity at human Gal4-fused RORalpha LBD (272 to 556 residues) expressed in human Jurkat cells measured after 18 hrs by steady-glo luciferase reporter gene assay; format: cell-based
T3 sequence (P35398 whole entry): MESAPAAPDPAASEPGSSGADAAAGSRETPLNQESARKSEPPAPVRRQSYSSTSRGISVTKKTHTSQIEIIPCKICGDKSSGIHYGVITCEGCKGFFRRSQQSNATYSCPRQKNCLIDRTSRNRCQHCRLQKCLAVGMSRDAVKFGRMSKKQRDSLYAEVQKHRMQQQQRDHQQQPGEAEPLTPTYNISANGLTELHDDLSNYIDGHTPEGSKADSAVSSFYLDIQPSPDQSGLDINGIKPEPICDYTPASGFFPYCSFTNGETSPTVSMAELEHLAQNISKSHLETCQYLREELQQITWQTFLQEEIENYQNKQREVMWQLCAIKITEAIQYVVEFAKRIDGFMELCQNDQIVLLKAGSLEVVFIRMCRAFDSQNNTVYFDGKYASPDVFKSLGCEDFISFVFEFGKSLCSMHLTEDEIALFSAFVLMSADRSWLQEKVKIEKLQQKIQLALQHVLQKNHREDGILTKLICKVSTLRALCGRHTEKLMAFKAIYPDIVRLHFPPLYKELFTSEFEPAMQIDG

[4] = target: T4, Oxysterols receptor LXR-alpha (Homo sapiens, UniProt Q13133); test: Transactivation of human GAL4-fused LXRalpha expressed in African green monkey CV1 cells; format: cell-based
T4 sequence (Q13133 whole entry): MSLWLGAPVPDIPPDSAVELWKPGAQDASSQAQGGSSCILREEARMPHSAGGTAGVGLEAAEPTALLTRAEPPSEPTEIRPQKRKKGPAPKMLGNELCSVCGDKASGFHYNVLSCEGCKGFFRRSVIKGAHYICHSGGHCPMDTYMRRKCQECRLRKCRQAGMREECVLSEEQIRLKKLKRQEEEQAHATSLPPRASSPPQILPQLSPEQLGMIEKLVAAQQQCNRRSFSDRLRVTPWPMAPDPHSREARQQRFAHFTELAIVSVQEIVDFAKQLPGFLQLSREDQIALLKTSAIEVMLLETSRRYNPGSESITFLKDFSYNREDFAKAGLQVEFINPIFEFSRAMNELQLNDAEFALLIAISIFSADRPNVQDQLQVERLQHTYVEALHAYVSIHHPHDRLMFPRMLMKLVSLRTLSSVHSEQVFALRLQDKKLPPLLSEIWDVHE

[5] = target: T5, Oxysterols receptor LXR-beta (Homo sapiens, UniProt P55055); test: Transactivation of human GAL4-fused LXRbeta expressed in African green monkey CV1 cells; format: cell-based
T5 sequence (P55055 whole entry): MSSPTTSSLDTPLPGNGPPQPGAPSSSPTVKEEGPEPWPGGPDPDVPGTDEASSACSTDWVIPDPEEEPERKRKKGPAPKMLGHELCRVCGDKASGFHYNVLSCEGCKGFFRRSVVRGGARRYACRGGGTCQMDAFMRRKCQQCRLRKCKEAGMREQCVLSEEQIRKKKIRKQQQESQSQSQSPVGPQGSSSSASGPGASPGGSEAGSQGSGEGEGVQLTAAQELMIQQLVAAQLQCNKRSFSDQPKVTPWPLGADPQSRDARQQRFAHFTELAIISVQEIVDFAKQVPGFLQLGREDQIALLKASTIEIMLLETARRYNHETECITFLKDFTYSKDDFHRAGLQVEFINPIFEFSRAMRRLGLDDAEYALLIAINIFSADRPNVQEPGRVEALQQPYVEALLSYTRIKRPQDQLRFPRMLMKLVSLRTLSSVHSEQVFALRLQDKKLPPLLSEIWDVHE

[6] = Stability in mouse liver microsomes assessed as parent compound remaining after 10 mins; format: ADME, Microsome; details: liver microsomes, read-out: Stability
PXR = target: T6, PXR (Homo sapiens, UniProt O75469); test: (§1) Transactivation of PXR (unknown origin) expressed in human HepG2 cells assessed as maximum receptor activation response relative to control; format: cell-based; details: human HepG2 cells that express PXR, read-out: %max
T6 sequence (O75469 whole entry): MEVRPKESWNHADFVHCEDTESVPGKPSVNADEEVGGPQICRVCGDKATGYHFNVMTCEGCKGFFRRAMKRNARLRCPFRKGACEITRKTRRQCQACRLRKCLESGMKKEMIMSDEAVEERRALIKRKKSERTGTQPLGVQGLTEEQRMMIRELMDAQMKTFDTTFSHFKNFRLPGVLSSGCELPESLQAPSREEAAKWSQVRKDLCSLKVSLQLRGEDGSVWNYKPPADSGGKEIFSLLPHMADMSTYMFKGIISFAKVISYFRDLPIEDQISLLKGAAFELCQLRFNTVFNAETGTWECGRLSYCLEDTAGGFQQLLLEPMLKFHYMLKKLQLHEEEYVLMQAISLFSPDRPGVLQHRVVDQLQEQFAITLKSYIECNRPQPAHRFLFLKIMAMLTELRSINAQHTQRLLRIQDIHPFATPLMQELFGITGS

[7] = target: T7, Nuclear receptor subfamily 1 group I member 2 (Homo sapiens, UniProt O75469); test: Transactivation of PXR (unknown origin) expressed in human HepG2 cells; format: cell-based
T7 sequence (O75469 whole entry): T6 sequence (O75469 whole entry)

[8] = Stability in human liver microsomes assessed as parent compound remaining after 10 mins; format: ADME, Microsome; details: liver microsomes, read-out: Stability
[9] = target: T7, Nuclear receptor subfamily 1 group I member 2; test: as §1; format: cell-based; details: hepg2

EC50 [1] [µM]	EC50 [2] [µM]	EC50 [3] [µM]	EC50 [4] [µM]	EC50 [5] [µM]	remaining at 10 min [6] [%]	Emax (PXR) [%]	EC50 [7] [µM]	remaining at 10 min [8] [%]	%max [9] [%]	SMILES
0.056	> 40	> 40	> 7.5	> 7.5	95	7	> 50	80	–	C[C@]1(C(=O)N2CC[C@](c3ccc(C(F)(C(F)(F)F)C(F)(F)F)cc3)(S(=O)(=O)c3ccc(F)cc3)C2)CC[C@H](C(=O)O)CC1
0.776	> 40	> 40	> 7.5	> 7.5	100	18	> 50	85	–	C[C@]1(C(=O)N2CC[C@](c3ccc(C(F)(C(F)(F)F)C(F)(F)F)cc3)(S(=O)(=O)c3ccc(F)cc3)C2)CC[C@@H](C(=O)O)CC1
–	> 40	> 40	> 7.5	> 7.5	69	–	1.8	88	29	CS(=O)(=O)C1CCC(C(=O)N2CC[C@](c3ccc(C(F)(C(F)(F)F)C(F)(F)F)cc3)(S(=O)(=O)c3ccc(F)cc3)C2)CC1 (stereo in doubt; 28)
